The source of these data is article PMC9561113, “[2]-Ladderanes as isosteres for meta-substituted aromatic rings and rigidified cyclohexanes” (Nature Communications, 2022).

The nature of data set [1]: High throughput equilibrium solubility (miniaturized shake flask). It counts as physicochemical. The following applies: phosphate buffer, aqueous buffer, thermodynamic from solid; pH 6.8 phosphate media, shaken 16 hours. As to the method:
High Throughput Equilibriu m Solubility:
The following procedure was adapted from the literature.15 Equilibrium solubility was determined using a miniaturized shake flask approach as described in Zhou et al. Aliquots of 10 mM DMSO compound solution were dispensed in triplicate (2.5 µL/sample) in 96-well polypropylene plates using a Labcyte Echo 525 acoustic dispenser. The DMSO was removed using a GeneVac HT4X evaporator for 15 minutes, 35 °C and full vacuum. Media (pH 6.8 Di-Sodium Hydrogen Phosphate/Potassium Hydrogen Phosphate) was added to each well to achieve a target concentration of 1 mM. The plate was sealed and shaken for 16 hours, then centrifuged at 1000g for phase separation. An aliquot of supernatant was transferred to a new plate, centrifuged a second time at 100g, and then the final supernatant was further diluted for subsequent analysis. Quantification of solubility was performed using a Sound Analytics LS1 and Sciex 6500+ MS/MS and an 8-point calibration curve. […]

Data set [2] can be described thus: Permeability (MDCK), apparent permeability apical-to-basolateral. The following applies: dog, with bafilomycin 100 nM in both compartments, MDCK-KO cells, pH 7.4, 2 h, read-out: Papp A-Bx10^-6. The class given is in vitro ADME. The procedure:
The following procedure was adapted from the literature.16 To determine the apparent permeability (Papp), MDCK knockout (MDCK-KO) cells were seeded on Transwell 96 -well plate inserts (Corning, Tewksbury, MA,) at a density of 1.5 × 10^5 cells/cm2 in high glucose DMEM with GlutaMAX containing 10% […]
v/v heat deactivated FBS and 1% v/v penicillin-streptomycin (all from Gibco) and grown for 4 days at 37 °C in an atmosphere of 5% CO 2 and 95% relative humidity. Stock solutions of the compounds were prepared in dimethyl sulfoxide (DMSO) (10 mM), and each compound was dosed in triplicate at a final concentration of 10 μM in Hanks’ balanced salt solution (HBSS) at pH 7.4 containing 10 mM 4-(2-hydroxyethyl)-1-piperazineethanesulfonic acid (HEPES) and 0.02% w/v bovine serum albumin (BSA). A solution without the compounds and containing 5% BSA was added to the acceptor. Bafilomycin (100 nM) was added to both compartments. Cells were incubated with the compounds for 2 h at 37 °C, and flux was measured in the apical-to-basolateral direction. Aliquots from the apical, basal and compound dilution plate were sampled and diluted in 90% Methanol 10% Water with 0.1% Formic acid and 0.4 μ M glyburide as an analytical standard to precipitate the protein. The solutions as well as the calibration solutions were centrifuged for 30 min at 3000 rpm for protein precipitation. Drug concentrations in the donor and acceptor compartments were measured by liquid chromatography–mass spectrometry (LC-MS/MS). […]

The nature of data set [3]: Log P (Pion SiriusT3 instrument). It counts as physicochemical. As to the method: v/v heat deactivated FBS and 1% v/v penicillin-streptomycin (all from Gibco) and grown for 4 days at 37 °C in an atmosphere of 5% CO 2 and 95% relative humidity. Stock solutions of the compounds were prepared in dimethyl sulfoxide (DMSO) (10 mM), and each compound was dosed in triplicate at a final concentration of 10 μM in Hanks’ balanced salt solution (HBSS) at pH 7.4 containing 10 mM 4-(2-hydroxyethyl)-1-piperazineethanesulfonic acid (HEPES) and 0.02% w/v bovine serum albumin (BSA). A solution without the compounds and containing 5% BSA was added to the acceptor. Bafilomycin (100 nM) was added to both compartments. Cells were incubated with the compounds for 2 h at 37 °C, and flux was measured in the apical-to-basolateral direction. Aliquots from the apical, basal and compound dilution plate were sampled and diluted in 90% Methanol 10% Water with 0.1% Formic acid and 0.4 μ M glyburide as an analytical standard to precipitate the protein. The solutions as well as the calibration solutions were centrifuged for 30 min at 3000 rpm for protein precipitation. Drug concentrations in the donor and acceptor compartments were measured by liquid chromatography–mass spectrometry (LC-MS/MS).
The Log P was measured using a Pion SiriusT3 instrument.
To determine the stability of the bicyclo[2.2.0] system, the following experiments were performed:
Aqueous stability at two different pH:
SI-48 was first saponified to avoid the possibility of acid- or base-mediated hydrolysis:
Two solutions of pH = 2 and pH = 10 were prepared with 1M solutions of HCl and NaOH. Then, SI-49 was stirred in two separate solutions (1 mL of each of the aqueous solution and 0.80 mL of MeCN for each).
LC/MS for both durations. […]

Data set [4] can be described thus: Microsomal clearance (rat liver microsomal intrinsic clearance). The class given is in vitro ADME. The following applies: rat liver microsomes, 37 °C, NADPH, 0-30 minutes. The text has this: The metabolic and physicochemical properties of the [2]-ladderanes compared to aryl/cyclohexyl matched pairs were also studied (compare 35 with 36/37 and 38 with 39/40) (Fig. 5). These structures were chosen because they bear functional groups that are common in drug discovery, yet unlikely to pose any inherent risks. In addition, solubility, permeability, rat liver microsomal intrinsic clearance, and LogP were selected to be evaluated as these are common parameters modulated in drug discovery programs to improve the pharmacokinetic/pharmacodynamic and safety profiles of potential drug candidates.
The following procedure was adapted from the literature. 14 The experiment was performed in 96-well plate format with shaking incubation at 37 °C and 750 rpm. The compounds in 10 mM DMSO were diluted 1:1000 in 100 mM potassium phosphate (Kpi) buffer to 10 µM. 30 µL of the compound solution was added to 120 µL of pretreated microsomal protein for 150 µL enzyme-substrate mixture. Reactions were initiated by addition of 150 µL of cofactor solution (2 mM NADPH, 4 mM MgCl2 in 100 mM KPi). At specific reaction time points (0, 5, 15 and 30 minutes), reaction aliquots (25 µL) were removed and terminated by addition to acetonitrile (150 µL) containing mass spectrometry internal standard (0.4 µM glyburide). The samples were then centrifuged at 500g, and the supernatants analyzed by LC-MS/MS for quantitation of remaining target compound. The percentage of target compound remaining, relative to 0 minutes, was used to estimate in vitro elimination-rate constant (kmic). […]

SMILES strings stand for the structures. Converted amounts (≈) assume the structure as drawn. A value given as a limit tells only on which side of the number the result lay.

`O=C(C1CC2CC(CO)C21)N1CCCCC1` (stereo not drawn) [compound 35] had a solubility at 16 h in data set [1] greater than 200 µM. Moreover, the Papp at 2 h, 10 μM in data set [2] was 290 nm/s. This compound returned a logP in data set [3] of 0.74. In addition, the “Rat Clint” value in data set [4] was 15 mL/min.

For the compound `O=C(c1cccc(CO)c1)N1CCCCC1` [compound 36], in data set [1], the solubility at 16 h is greater than 200 µM. In addition, in data set [2], the Papp at 2 h, 10 μM worked out at 320 nm/s. The compound further yielded a lipophilicity (logP) in data set [3] of 0.41. In addition, the “Rat Clint” value in data set [4] was less than 10 mL/min.

In turn, `O=C(C1CCCC(CO)C1)N1CCCCC1` (stereo not drawn) [compound 37] gave a solubility at 16 h in data set [1] greater than 200 µM. For the same compound, the Papp at 2 h, 10 μM in data set [2] was determined as 280 nm/s. In data set [3], this compound came in with a logP of 1.45. Moreover, the “Rat Clint” value in data set [4] was found to be 21 mL/min.

In data set [1], `O=C(O)[C@@H]1C[C@H]2C[C@H](C(=O)N3CCCCC3)[C@H]21` [compound 38] displayed a solubility at 16 h of 180 µM (≈ 42.7 µg/mL). The apparent permeability coefficient (Papp) at 2 h, 10 μM in data set [2] was 50 nm/s. In data set [3], this compound returned a lipophilicity (logP) of 0.98. Besides, the “Rat Clint” value in data set [4] is less than 10 mL/min.

`O=C(O)c1cccc(C(=O)N2CCCCC2)c1` [compound 39]: the solubility at 16 h in data set [1] was greater than 200 µM. In addition, the Papp at 2 h, 10 μM in data set [2] came to 40 nm/s. Moreover, the log partition coefficient (logP) in data set [3] was 1.15. Besides, the “Rat Clint” value in data set [4] is less than 10 mL/min.

In data set [1], `O=C(O)C1CCCC(C(=O)N2CCCCC2)C1` (stereo not drawn) [compound 40] came in with a solubility at 16 h of 200 µM (≈ 47.9 µg/mL). Moreover, the Papp at 2 h, 10 μM in data set [2] turned out to be 40 nm/s. In data set [3], this compound returned a logP of 0.95. Also, in data set [4], the “Rat Clint” value was less than 10 mL/min.
